From US6515106B1, “Lysozyme-analogous polypeptides with an anti-microbial effect, their production and use” (priority 1997, dated 2003)
Like-named read-outs stand apart in the source and are kept apart here.

How the values were obtained:
Phytophthora nicotianae = test: Fungus tests: relative lengths of germ tubes (untitled table, buffers I/II); format: cell-based
Method: Fungus tests: Relative lengths of germ tubes
(§1) The bactericidal effect of the individual fragments is readily determined by incubation (use of 1-10 μg polypeptide for a quantity of 1×10^7 bacteria cells) for one hour with Escherichia coli or other gram-negative (e.g. Erwinia carotovora, Agrobacterium tumefaciens, Pseudomonas fluorescens) or gram-positive type of bacteria (e.g. Micrococcus lysodeikticus, Clavibacter michiganensis), followed by plating out a dilution series of the suspension, and counting the surviving bacteria. The fungicidal effect of the individual fragments is determined by incubation for 20 hours with spores of Phytophthora nicotianae, or other fungus types, followed by plating out to determine the reduced growth length of the fungus hyphae. The activity is determined in relation to purified T4 lysozyme as standard.

Escherichia coli cells = test: Relative survival rates of Escherichia coli cells after 1 hr incubation (bactericidal activity); format: cell-based; conditions: for Relative survival rate of Escherichia coli cells: in 0.1 × PBS, 1 hr incubation
Method: The antibiotic effectiveness of the polypeptides of the invention is illustrated by their effect on survival rates of Escherichia coli cells in Table 1.
as §1

[1] = test system: Phytophthora nicotianae zoospores; test: Relative length of germ tubes of Phytophthora nicotianae zoospores (fungicidal activity, Table 2); format: cell-based; conditions: 10 μg, in 0.1 xPBS, after 7 hrs, against blank control
muramidase = test: Enzyme activity (muramidase) of the polypeptide; format: biochemical, bacteriophage T4

| Sequence | Relative lengths of germ tubes (Phytophthora nicotianae; 1 μg, in buffer I (20 μl buffer Al + 1 μl PBS)) | Relative survival rate of Escherichia coli cells (Escherichia coli cells; 1 μg) | Relative survival rate of Escherichia coli cells (Escherichia coli cells; 10 μg) | Bactericidal activity compared with T4 lysozyme, in words (Escherichia coli cells; comment on Table 1) | Relative length of germ tubes [1] | Enzyme activity (muramidase), in words (muramidase) | Enzyme activity (muramidase), in words (muramidase; listed as amino acid 143-155) | Relative lengths of germ tubes (Phytophthora nicotianae; 10 μg, in buffer II (20 μl buffer Al + 1 μl 50% DMSO/50% PBS)) |
| --- | --- | --- | --- | --- | --- | --- | --- | --- |
| PNRAKRVIFTFRT [Peptide A4] | 0.59 | 0.74 +/− 0.14 | 0.05 +/− 0.09 | significantly higher bactericidal activity | 0.48 | no enzymatic muramidase activity | none of the native enzymatic activity |  |
| WDEAAVNLAKSRWYNQ [Peptide A23, peptide including AA 126-141 of T4 lysozyme] |  |  |  |  |  |  |  | 0.69 |
